biological target: T1, pig brain prolyl oligopeptidase (Sus scrofa, UniProt P23687); assay: Inhibition of pig brain prolyl oligopeptidase (Suc-Gly-Pro-AMC fluorometric microplate assay); type: biochemical; settings: pig brain supernatant, Suc-Gly-Pro-AMC substrate, 30 min preincubation, 30° C., pH 7.0
T1 construct: The brains were homogenized with a glass-teflon homogenisator in 3 volumes (w/v) of ice-cold 0.1 M sodium-potassium phosphate buffer; from tissue; host or cells: pig brain (whole brain excluding cerebellum and most of the brain stem), 10000 g supernatant of the homogenate
Method: The inhibitory effect of the novel compounds on POP activity of pig brain was determined with a method based on that described by Toide et al. (Toide, K, Iwamoto, Y., Fujiwara. T., Abe, H., J. Pharmacol. Exp. Ther., 1995, 274, 1370-1378) for the rat enzyme.
The whole pig brains, excluding cerebellum and most of the brain stem, of three pigs were placed in liquid nitrogen within 30 min from killing and stored at −80° C. until homogenized. The brains were homogenized with a glass-teflon homogenisator in 3 volumes (w/v) of ice-cold 0.1 M sodium-potassium phosphate buffer (pH 7.0) and the homogenates were centrifuged for 20 min at 4° C. at 10000 g. The supernatants were collected, pooled and stored in small aliquots at −80° C. until used. The supernatant was thawn in ice just before activity assay and diluted in a ratio 1:2 with homogenisation buffer (=enzyme preparation).
In the microplate assay procedure, 10 μl of enzyme preparation was preincubated with 460 μl of 0.1 M sodium-potassium phosphate buffer (pH 7.0) and 5 μl of a solution of novel compound dissolved in DMSO and diluted with 0.1 M sodium-potassium phosphate buffer at 30° C. for 30 min. The controls contained 10 μl enzyme preparation and 465 μl of 0.1 M sodium-potassium phosphate buffer (pH 7.0). The reaction was initiated by adding 25 μl of 4 mM Suc-Gly-Pro-AMC (AMC: 7-amido-4-methylcoumarin) dissolved in 0.1 M sodium-potassium phosphate buffer (pH 7.0), and the mixture was incubated at 30° C. for 60 min. The reaction was terminated by adding 500 μl of 1 M sodium acetate buffer (pH 4.2).
Formation of 7-amido-4-methylcoumarin was determined fluorometrically with microplate fluorescence reader (excitation at 360 nm and emission at 460 nm). The final concentration of novel compounds in the assay mixture varied from 10^−12 M to 10^−4 M.
The prolyl oligopeptidase activity was calculated with the following formula in the presence of various concentrations of novel compounds. To reveal the inhibitory potency of the novel compound, activities (% of control) were plotted against the log concentration of the compound, and the IC50 value was determined by non-linear regression utilizing GraphPad Prism software. Activity (% of control)=a/b×100, where
a=fluorescence intensity in the presence of a novel compound
b=fluorescence intensity without a novel compound (control)

T1 sequence (P23687 whole entry): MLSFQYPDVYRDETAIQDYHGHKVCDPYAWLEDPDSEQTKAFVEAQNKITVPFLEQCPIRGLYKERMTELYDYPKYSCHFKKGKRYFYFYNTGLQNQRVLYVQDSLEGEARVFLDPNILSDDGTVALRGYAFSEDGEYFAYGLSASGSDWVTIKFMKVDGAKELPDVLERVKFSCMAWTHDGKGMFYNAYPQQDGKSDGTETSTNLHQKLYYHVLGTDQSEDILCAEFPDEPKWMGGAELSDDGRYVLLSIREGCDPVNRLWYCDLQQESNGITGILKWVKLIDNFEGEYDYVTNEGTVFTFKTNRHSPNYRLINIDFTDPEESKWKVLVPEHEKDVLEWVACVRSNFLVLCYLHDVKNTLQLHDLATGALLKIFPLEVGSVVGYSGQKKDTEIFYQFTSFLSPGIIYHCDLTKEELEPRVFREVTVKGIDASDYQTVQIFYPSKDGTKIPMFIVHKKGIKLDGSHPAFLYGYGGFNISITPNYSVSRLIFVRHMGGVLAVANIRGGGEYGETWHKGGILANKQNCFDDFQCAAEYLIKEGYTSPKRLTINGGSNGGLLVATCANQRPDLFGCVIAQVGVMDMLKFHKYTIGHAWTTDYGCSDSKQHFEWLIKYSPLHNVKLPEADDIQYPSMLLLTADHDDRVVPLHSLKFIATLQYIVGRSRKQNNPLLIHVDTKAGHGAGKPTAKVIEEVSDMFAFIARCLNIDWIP

| IC50 | Compound |
| --- | --- |
| 0.71 nM | 4-Phenylbutanoyl-5(R)-methyl-L-prolyl-pyrrolidine [Example 7] |
| 1.4 nM | 4-Phenylbutanoyl-5(S)-methyl-L-prolyl-pyrrolidine [Example 14] |
| 0.32 nM | O=C(NCc1ccccc1)C1=CCCC1C(=O)N1CCC[C@H]1C(=O)CO (single isomer, unassigned) [Example 2] |
| 0.38 nM | N#C[C@@H]1CCCN1C(=O)C1CCC=C1C(=O)NCc1ccccc1 (stereo partly drawn) [Example 1, 2-(Benzylcarbamoyl)-cyclopent-2-ene-carboxylic acid 2(S)-cyanopyrrolidine amide] |
| 9 nM | O=C(NCc1ccccc1)C1=CCCC1C(=O)N1CCCC1 (stereo not shown) [Example 3, 2-Benzylcarbamoyl-cyclopent-2-ene-carboxylic acid pyrrolidine amide] |
| 7.7 nM | O=C(Cc1ccccc1)C1=CCCC1C(=O)N1CCCC1 (stereo not shown) [Example 4, 2-Benzylcarbonyl-cyclopent-2-ene-carboxylic acid pyrrolidine amide] |
| 0.21 nM | N#C[C@@H]1CCCN1C(=O)C1CCC=C1C(=O)CCCc1ccccc1 (stereo partly drawn) [Example 5, 2-(4-Phenylbutanoyl)-cyclopent-2-ene-carboxylic acid 2(S)-cyanopyrrolidine amide] |
| 0.15 nM | C[C@@H]1CC[C@@H](C(=O)N2CCC[C@H]2C(=O)CO)N1C(=O)CCCc1ccccc1 [Example 8, 4-Phenylbutanoyl-5(R)-methyl-L-prolyl-2(S)-(hydroxyacetyl)-pyrrolidine] |
| 2.2 nM | CC(C)(C)OC(=O)N1[C@H](C(=O)N2CCCC2)CC[C@@H]1C(C)(C)C [Example 9, Boc-5(R)-tert-butyl-L-prolyl-pyrrolidine] |
| 1.6 nM | CC(C)(C)[C@H]1CC[C@@H](C(=O)N2CCCC2)N1C(=O)CCCc1ccccc1 [Example 11, 4-Phenylbutanoyl-5(R)-tert-butyl-L-prolyl-pyrrolidine] |
| 0.24 nM | CC(C)(C)[C@H]1CC[C@@H](C(=O)N2CCC[C@H]2C(=O)CO)N1C(=O)CCCc1ccccc1 [Example 12, 4-Phenylbutanoyl-5(R)-tert-butyl-L-prolyl-2(S)-(hydroxyacetyl)-pyrrolidine] |
| 0.17 nM | C[C@H]1CC[C@@H](C(=O)N2CCC[C@H]2C(=O)CO)N1C(=O)CCCc1ccccc1 [Example 15, 4-Phenylbutanoyl-5(S)-methyl-L-prolyl-2(S)-(hydroxyacetyl)-pyrrolidine] |
| 9.2 nM | CC(C)(C)OC(=O)N1[C@H](C(C)(C)C)CC[C@H]1C(=O)N1CCCC1 [Example 16, Boc-5(S)-tert-butyl-L-prolyl-pyrrolidine] |

Source: patent publication US20060229254A1, “Compounds having prolyl oligopeptidase inhibitory activity” (priority 2003, published 2006)
